Assays:
[1] = target: T1, PSII reaction centre (Dunaliella salina, UniProt A0A1C8XRK9+D0FY08); test: cryo-EM structure; format: binding; details: type a inferred
T1 construct: gene psbA; native D1/D2 heterodimer in PSII C2S2 supercomplex purified from D. salina

[2] = target: photosystem II (PSII) core, one of the two cores of the dimer (Dunaliella salina); test: cryo-EM structure; native PSII purified from D. salina thylakoids (1% α-DM, sucrose gradient), in 25 mM MES pH 6.5, 1 mM CaCl2, 5 mM MgCl2, 0.1% α-DM; unstacked particles: C2S2 compact 2.43 Å, C2S2 stretched 2.62 Å, C2S 3.61 Å

With `C=Cc1c(C)c2cc3nc(c4c5[nH]c(cc6nc(cc1[nH]2)C(C)=C6CC)c(C)c5C(=O)[C@@H]4C(=O)OC)[C@@H](CCC(=O)OC/C=C(\C)CCC[C@H](C)CCC[C@H](C)CCCC(C)C)[C@@H]3C` [pheophytin] the cryo-EM structure [1] was “PSII reaction centre chlorophylls (Chls), pheophytins, and quinone”.
Work on “photosystem II (PSII) core, one of the two cores of the dimer (complex)” yielded a stoichiometry N [2] of 2.
